According to ChEMBL document CHEMBL5316328, “Discovery of AXL Degraders with Improved Potencies in Triple-Negative Breast Cancer (TNBC) Cells” (J Med Chem, 2023):

Tests used:
[1] = tested on: MDA-MB-231; assay: Induction of cell cycle arrest in human MDA-MB-231 cells assessed as accumulation of cell at G2/M phase at 300 nM incubated for 24 hrs by PI staining based flow cytometric analysis (reference value: 24.34 to 24.44%); type: functional
[2] = tested on: MDA-MB-231; assay: Induction of cell cycle arrest in human MDA-MB-231 cells assessed as accumulation of cell at G2/M phase at 33.3 nM incubated for 24 hrs by PI staining based flow cytometric analysis (reference value: 24.34 to 24.44%); type: functional

Question: What does the source list for CCc1ccc2c(c1)c(=O)c(C(=O)Nc1ccc(Oc3ncnc4cc(OCCCCCC(=O)Nc5ccc6c(c5)CN(C5CCC(=O)NC5=O)C6=O)c(OC)cc34)c(F)c1)c(C)n2C (configuration not stated)?
Answer: Activity [1]: 29.55%; Activity [2]: 22.85%
